Broadly, the melting point is the temperature, or range, at which the solid turns liquid. `Cc1cc(/C=C/C#N)cc(C)c1Nc1nc(Nc2ccc(C#N)cc2)ncc1CNCc1cccnc1` returned a melting point of 236 °C.

The compound `Cc1cc(/C=C/C#N)cc(C)c1Nc1nc(Nc2ccc(C#N)cc2)ncc1NCc1cccnc1` returned a melting point of 140 °C.

Consider `CCc1cscn1`, for which the melting point was > 250 °C.
